In patent US7314959B2, “Amino thiol compounds and compositions for use in conjunction with cancer therapy” (Wisconsin Alumni Research Foundation, priority 2003, dated 2008):
Where two headings read alike, the source gives them in different places.

Key:
[1] = test system: p21 protein in 23SK human skin cells; test: p21 induction by western analysis; assay type: cell-based; details: 23SK cells, 30 hr exposure
Description: FIGS. 3A and 3B illustrate the level of induced p21 protein seen in diploid human fibroblasts after a 30 hr exposure to each of the indicated chemoprotective polyamines. […] In these experiments, the 23SK human skin cells were exposed for 30 hr to an “IC80” dose of each of the indicated chemoprotective polyamines and then lysed. Cell extracts were then prepared in order to measure p21 levels by western analysis (FIG. 3A).
FIG. 3 illustrates that chemoprotective polyamines are able to induce expression of the negative cell cycle regulatory protein, p21, after exposing the human skin cells to the polyamine molecules. […] In these experiments, the 23SK human skin cells were exposed for 30 hr to an “IC80” dose of each of the indicated chemoprotective polyamines and then lysed. Cell extracts were then prepared in order to measure p21 levels by western analysis (FIG. 3A). Although the ability of modified polyamines to induce p21 is known in the literature (Kramer, D. et al., Cancer Res. 59:1278-1286, 1999), it is a novel aspect of this invention that those chemoprotective polyamines with longer aliphatic “arms” were better able to induce expression of p21 as shown in FIG. 4.

23SK skin cells = test: Flow cytometry cell cycle distribution; assay type: cell-based, human
From the text: FIGS. 5A-5D are cell histograms showing the results from flow cytometry analysis of chemoprotective polyamine-treated 23SK skin cells.
In FIG. 5, cell histograms showing the results from flow cytometry analysis of chemoprotective polyamine-treated 23SK skin cells are shown. […] The transient nature of the cell cycle block induced by chemoprotective polyamines is believed to be an important aspect of their efficacy, i.e., their ability to block cell cycle progression in stem cells during the course of chemo- or radiotherapy, and the resumption of normal stem cell division after a given cancer therapy course has been completed.

cell cycle = details: Jeitner and Renton 1996; Snyder and Grdina 2000; Kramer et al. 1997; cited from earlier work
[2] = test system: radiation-induced dermatitis on backs of rats; test: Radiation-induced dermatitis in rat skin model; assay type: in vivo; details: for protective activity against radiation-induced dermatitis: 370 mM, vehicle 50:30:20, scored 13 days later
Description: To determine efficacy of chemoprotective polyamines in preventing radiation-induced dermatitis, adult rats were topically treated with the compounds before and after radiation treatment. Rats were exposed to medically relevant levels of radiation that could induce clinical radiation dermatitis. Sprague Dawley rats (Harlan Spraque Dawley) at 4-6 weeks-old were anesthetized with sodium pentobarbital at 40 mg/kg body weight (Sigma, St. Louis, Mo.) prior to radiation exposure. A defined area (1.5×2 cm) on the backs of rats was irradiated using a Mark I, Model 30, Cs 137 irradiator (J. L. Sheppard & Associates). Before topical drug treatment or irradiation, the backs of the rats were clipped using an Oster clipper at the closest setting. The rest of the body was protected from radiation exposure using a lead shield (2.5 cm thick). A dose response study was initially performed to reproduce relevant dermatitis that matched the Grade (I-IV) scale used to score the severity of radiation-induced dermatitis in humans. The severity of the dermatitis was scored 12-13 days post-irradiation at the peak of the dermal inflammation. […] Radiation dermatitis of Grade II-III was considered most clinically relevant, so a radiation dose of 8.7 Gy was typically used in the rats. The clipped back region on the rats was treated topically with aminothiol in delivery vehicle four times in the two hours immediately preceding irradiation (at −2 hr, −1 hr, −30 min, and −10 min; irradiation was at 0 min
The polyamines or amino thiols were prepared in a delivery vehicle, consisting of ethanol:propylene glycol:water, ranging from 0:95:5 to 50:30:20 depending upon the solubility characteristics of the topical molecule, and the degree of dermal penetration desired. A vehicle composed of an emulsion formed by sonication of ‘nonionic liposomes’ and isopropyl myristate was also used (Jayaraman, S. et al., J. Pharm. Sci. 85:1082-1084, 1996). In a commonly used protocol, 220 μl of topical drug/vehicle was applied to an area ˜2 cm×3 cm on the back in the 2 hr just prior to irradiation. Rats treated with only the delivery vehicle served as controls. Twelve to thirteen days post-radiation, the rats were evaluated for dermatitis within the irradiated area. In early studies, a modified scoring scale described by Masuda K. et al., Int. J. Radiation Oncol. Biol. Phys: 12, 1645 (1986) was used, and in later studies, including those described here, a simplified scoring system was used in which the percentage of the irradiated, rectangular field covered with scrab material was estimated between 0 and 100% to provide scores on a scale between 0 and 100.
This example relates to the use of a rat skin model to evaluate the efficacy of two amino thiol compounds in preventing radiation-induced dermatitis. To test whether topically-applied aminothiols could prevent the radiodermatitis caused by external beam radiotherapy, the rodent model described in Example 3 was slightly modified. Briefly, the radiodermatitis model involved: • i) shaving the backs of 6-7 week old rats or mice; • ii) applying four topical doses of aminothiol in a delivery vehicle composed of ethanol:propylene glycol (PG):water in the 2 hr prior to irradiation; • iii) irradiating a small, 3 cm^2 (1.5×2 cm) area on the animal's back (through a window in a lead plate) with 8.7 Gy of γ radiation from a Cs^137 source; and • iv) scoring the severity of the dermatitis 12-13 days later, at the peak of the inflammatory skin reaction. Radiodermatitis severity was scored by estimating the percentage of the irradiated field that was covered by scrab material.
Methods: Treatments were applied as described in Example 6.

[3] = test system: primary, diploid fibroblasts isolated from human skin; test: Growth inhibition of primary diploid human skin fibroblasts; assay type: cell-based; details: 50% inhibition of human skin fibroblast growth
Description: The in vitro growth inhibitory effects of certain of the chemoprotective polyamines of the invention were measured using primary, diploid fibroblasts isolated from human skin.

DNA = DNA binding/precipitation from solution
From the text: The chemoprotective polyamines provided herein are also able to bind, denature and precipitate DNA from solution. As the skilled artisan will appreciate, as the concentration of polyamine is increased, there is a point where polyamine binding to helical B-DNA induces single-stranded ‘bubbles’ and conversion to other forms of DNA structure, such as Z-DNA (Feuerstein, B. et al., Nuc. Acids Res. 17:6883-6892, 1989; Basu, H. and Marton, L., Biochem. J. 244:243-246, 1987), as well as precipitating the DNA from solution.

[4] = Expt. 1, read-out: IC50 (uM), Expt. 1
[5] = Expt. 2, read-out: IC50 (uM), Expt. 2
[6] = Expt. 1, read-out: DNA Bind/ppt. IC50 (uM), Expt. 1
[7] = Expt. 2, read-out: DNA Bind/ppt. IC50 (uM), Expt. 2

SMILES: CN[C@H]1CCc2cc(OC)c(OC)c(OC)c2-c2ccc(OC)c(=O)cc21 [Colcemid, reference compound]
- p21 fold-induction at IC80 Dose [1]: 3.31 fold
- Cell Cycle Distribution At IC80 Dose (%) G1 (23SK skin cells): 8%
- Cell Cycle Distribution At IC80 Dose (%) G2/M (23SK skin cells): 81%
- Cell Cycle Distribution At IC80 Dose (%) S (23SK skin cells): 11%

SMILES: CCNCCCNCCCNCCCNCC [DENSPM]
- cell cycle arrest reported in literature (cell cycle): G1-specific cell cycle block that was reversible

SMILES: CC(C)S [Mechanism Structure 1, reference compound]
- protective activity against radiation-induced dermatitis ([2]; 8.7 Gy): neither molecule exhibited discernable protective activity

SMILES: CNCCCNC [Mechanism Structure 2, reference compound]
- protective activity against radiation-induced dermatitis ([2]; 8.7 Gy): neither molecule exhibited discernable protective activity

SMILES: CCNCCCCNCCCCNCC=C(CNCC)CNCCCCNCCCCNCC [PrC-111]
- IC50 [3, 4]: 980 µM
- IC50 [3, 5]: 180 µM
- IC50 (DNA; [6]): 88 µM
- p21 fold-induction at IC80 Dose [1]: 2.22 fold
- Cell Cycle Distribution At IC80 Dose (%) G1 (23SK skin cells): 60%
- Cell Cycle Distribution At IC80 Dose (%) G2/M (23SK skin cells): 14%
- Cell Cycle Distribution At IC80 Dose (%) S (23SK skin cells): 25%

SMILES: CCNCCCCNCCCCNCCCCNCC=C(CNCC)CNCCCCNCCCCNCCCCNCC [PrC-112]
- IC50 [3, 4]: 2.53 µM
- IC50 (DNA; [6]): 93 µM
- p21 fold-induction at IC80 Dose [1]: 2.45 fold
- Cell Cycle Distribution At IC80 Dose (%) G1 (23SK skin cells): 61%
- Cell Cycle Distribution At IC80 Dose (%) G2/M (23SK skin cells): 16%
- Cell Cycle Distribution At IC80 Dose (%) S (23SK skin cells): 23%

SMILES: CCNCCCCNCCCCNCCCCNCCCCNCC=C(CNCC)CNCCCCNCCCCNCCCCNCCCCNCC [PrC-113]
- IC50 [3, 4]: 0.33 µM
- IC50 [3, 5]: 0.21 µM
- IC50 (DNA; [6]): 35 µM
- p21 fold-induction at IC80 Dose [1]: 3.21 fold
- Cell Cycle Distribution At IC80 Dose (%) G1 (23SK skin cells): 77%
- Cell Cycle Distribution At IC80 Dose (%) G2/M (23SK skin cells): 14%
- Cell Cycle Distribution At IC80 Dose (%) S (23SK skin cells): 8%

SMILES: CCNCCCCNC/C=C(/CS)CNCCCCNCC [PrC-114]
- IC50 [3, 4]: 850 µM
- IC50 [3, 5]: 240 µM
- IC50 (DNA; [6]): 94 µM

SMILES: CCNCCCCNCCCCNC/C=C(/CS)CNCCCCNCCCCNCC [PrC-115]
- IC50 [3, 4]: 4100 µM
- IC50 [3, 5]: 1090 µM
- IC50 (DNA; [6]): 37 µM
- IC50 (DNA; [7]): 83 µM

SMILES: CCNCCCCNCCCCNCCCCNC/C=C(/CS)CNCCCCNCCCCNCCCCNCC [PrC-116]
- IC50 [3, 4]: 5.8 µM
- IC50 (DNA; [6]): 82 µM
- IC50 (DNA; [7]): 63 µM
- p21 fold-induction at IC80 Dose [1]: 2.32 fold
- Cell Cycle Distribution At IC80 Dose (%) G1 (23SK skin cells): 66%
- Cell Cycle Distribution At IC80 Dose (%) G2/M (23SK skin cells): 23%
- Cell Cycle Distribution At IC80 Dose (%) S (23SK skin cells): 11%

SMILES: CCNCCCCNCCCCNCCCCNCCCCNC/C=C(/CS)CNCCCCNCCCCNCCCCNCCCCNCC [PrC-117]
- IC50 [3, 4]: 0.32 µM
- IC50 [3, 5]: 0.24 µM
- IC50 (DNA; [6]): 58 µM
- IC50 (DNA; [7]): 57 µM
- p21 fold-induction at IC80 Dose [1]: ~3.0 fold
- distribution within cell cycle compartments after drug removal (23SK skin cells; 72 hr treatment, then 48 hr in drug-free medium (FIG. 5D)): basically returned to that seen in cells previously untreated
- Cell Cycle Distribution At IC80 Dose (%) G1 (23SK skin cells): 86%
- Cell Cycle Distribution At IC80 Dose (%) G2/M (23SK skin cells): 3%
- Cell Cycle Distribution At IC80 Dose (%) S (23SK skin cells): 11%
- cells in G1 compartment (23SK skin cells; treated 72 hr (FIG. 5C)): 86.23%
- cells in S+G2 compartments (23SK skin cells; treated 72 hr (FIG. 5C)): 13.77%

SMILES: CCNCCCCNCCCCNCC=C(CO)CNCCCCNCCCCNCC [PrC-118]
- IC50 [3, 4]: 78 µM

SMILES: CCNCCCCNCCCCNCC=C(CNC)CNCCCCNCCCCNCC [PrC-119]
- IC50 [3, 4]: 470 µM
- IC50 [3, 5]: 202 µM
- IC50 (DNA; [6]): 89 µM
- p21 fold-induction at IC80 Dose [1]: 1.80 fold

SMILES: CCNCCCCNCCCCNCCCCNCC=C(CS)CNCCCCNCCCCNCCCCNCC [PrC-123]
- IC50 (DNA; [6]): 131 µM
- IC50 (DNA; [7]): 117 µM
- p21 fold-induction at IC80 Dose [1]: 2.22 fold
- Cell Cycle Distribution At IC80 Dose (%) G1 (23SK skin cells): 68%
- Cell Cycle Distribution At IC80 Dose (%) G2/M (23SK skin cells): 21%
- Cell Cycle Distribution At IC80 Dose (%) S (23SK skin cells): 10%

SMILES: NCC(CN)CS [PrC-211, 3-amino-2-aminomethyl-propane-1-thiol]
- Dermatitis Score (% of irradiated field free of scab material) ([2]; 1400 mM PrC-211, vehicle 0:95:5 (ditto mark), cage 488): 60 ± 12%
- concentration of topical aminothiol alone conferring complete protection against radiodermatitis ([2]; aminothiol alone, without epinephrine, 8.7 Gy): ~2200 mM

SMILES: NCCCNCCCCNCCCN [Spermine, spermine, reference compound]
- IC50 (DNA; [6]): 2600 µM
- IC50 for DNA binding/precipitation relative to most chemoprotective polyamines (DNA; spermine versus chemoprotective polyamines of Table 2): ~1,000 fold
